Like-named read-outs stand apart in the source and are kept apart here.
Tests used:
RV Wa (G1P[8]) strain = test: In vitro assay of RV replication inhibition (PFA); format: cell-based, Rotavirus; details: Rotavirus
Protocol: (§1) For analysis of effects of different […] on RV replication in vitro, 10,000 MA104 cells, 30,000 Caco-2 cells, and 80,000 HT-29 cells in 100 µL complete DMEM medium were seeded in 96-well plates and cultured at 37°C and 5% CO2 for 24 h. Then the cells were infected with RV Wa or SA11 strains (MOI = 1 (PFU/cell)) for 1 h. After removing the viruses and washing cells two times with DMEM, 100 µL DMEM containing the indicated concentrations of drugs was added to each well, and the plates were incubated at 37°C and 5% CO2. At 24 h p.i., the infected cells and culture medium were collected, frozen/thawed twice, and subjected to centrifugation at 1,000 × g for 3 min at room temperature. Then, the supernatant was subjected to analysis of viral load by PFA. […] Dose-response data (drug concentrations as x-axis and normalized inhibition percentages as y-axis) were fitted to a dose-response inhibition model ([Inhibitor] vs normalized response – Variable slope). […] Model adequacy was validated using goodness-of-fit metrics (R^2 ≥ 0.95), 95% confidence intervals, and residual distribution analysis.
(§2) Wa/SA11 strains were titrated by PFA, which was carried out as described (3) with some modification. Briefly, confluent monolayers of MA104 cells in 24-well tissue culture plates were infected with 100 µL supernatants containing infectious RV particles which were serially diluted (10^1, 10^2, 10^3, and 10^4) with DMEM containing 1 µg/mL trypsin and penicillin (10,000 U/mL)-streptomycin (5 µg/mL) (DMEM-T) for 1 h at 37°C. Then 400 µL agarose overlay (0.8% agarose in 1×DMEM-T) was added and the plates were incubated at 37℃ and 5% CO2 for 5 days. The cells in each well were fixed by 1 mL 4% paraformaldehyde (Sangon Biotech, China) overnight (> 12 h) at room temperature. Then, the paraformaldehyde and agarose were removed and the monolayers were stained with 0.5 ml of a 1% (v/v) crystal violet (Sangon Biotech, China) diluted in distilled water for 10 min at room temperature. Then, the plates were drained and dried, and the plaques were enumerated. As the EDIM strain is not able to grow in cell culture, it was titrated by qPCR analysis as described (4) with EDIM VP6 gene as the target.

RV SA11 (G3P[2]) strain = test: In vitro assay of RV replication inhibition (PFA); format: cell-based, Rotavirus; details: Rotavirus
Protocol: as §1, §2

[1] = Cytotoxicity assay (CCK-8); format: cell-based, Rhesus monkey; details: rhesus monkey
Protocol: (§3) To evaluate the cytotoxicity of different HSP90 inhibitors in vitro, 10,000 MA104 cells, 30,000 Caco-2 cells, and 80,000 HT-29 cells in 100 µL complete DMEM medium were seeded in 96-well plates and cultured at 37°C and 5% CO2 for 24 h to reach about 100% confluence, and a cell-free control was also set. After removing the initial medium, 100 µL of complete DMEM medium containing the indicated concentrations of drugs was added to each well, and the plates were incubated at 37°C and 5% CO2. Twenty-four hours later, the drug-containing medium was replaced with 100 µL fresh complete DMEM medium plus 10 µL 5 mM CCK-8 reagent (Beyotime, China), and OD450 absorbance of each well was detected 3 h later using a microplate reader (Gene Company Limited, China). Relative cell viability rate = OD450 (drug-treated cells − cell-free control) / OD450 (0 µM drug-treated cells − cell-free control).
(§4) The 50% cytotoxic concentration (CC50) values were determined by nonlinear regression (curve fit) analysis in GraphPad Prism 9.0 (GraphPad Software). Dose-response data (drug concentrations as X-axis and normalized cell viability percentages as Y-axis) were fitted to a Dose-response Inhibition model ("[Inhibitor] vs. normalized response-Variable slope"). The curve was constrained to a bottom limit of 0% viability. The CC50 value was automatically calculated as the X-intercept at Y=50%. Model adequacy was validated using goodness-of-fit metrics (R²≥0.95), 95% confidence intervals, and residual distribution analysis. Final CC50 values were derived from three independent biological replicates and reported as mean ± SEM.

MA104 cells = test: Cytotoxicity assay (CCK-8); format: cell-based, Rhesus monkey; details: 24 h
Protocol: as §3, §4

[2] = Cytotoxicity assay (CCK-8); format: cell-based, Human; details: human
Protocol: as §3, §4

Caco-2 cells = test: Cytotoxicity assay (CCK-8); format: cell-based, Human; details: 24 h
Protocol: as §3, §4

HT-29 cells = test: Cytotoxicity assay (CCK-8); format: cell-based, Human; details: 24 h
Protocol: as §3, §4

[3] = Caco-2, 24 h, read-out: IC50 (Fig 1B plot)
[4] = HT-29, 24 h, read-out: IC50 (Fig 1B plot)
[5] = MA104, 24 h, read-out: IC50 (Fig 1B plot)

COC1=C2C[C@@H](C)C[C@H](OC)[C@H](O)[C@@H](C)/C=C(\C)[C@H](OC(N)=O)[C@@H](OC)/C=C\C=C(/C)C(=O)NC(=CC1=O)C2=O [GA, geldanamycin]
IC50 (RV Wa (G1P[8]) strain; Wa strain in Caco-2 cells, MOI = 1, 24 h p.i., PFA, read-out: IC50): 91.7 ± 6.95 nM | IC50 (RV Wa (G1P[8]) strain; Wa strain in Caco-2 cells, representative experiment, 24 h, PFA, read-out: IC50 (Fig 1B plot)): 92 nM | IC50 (RV Wa (G1P[8]) strain; Wa strain in HT-29 cells, MOI = 1, 24 h p.i., PFA, read-out: IC50): 16.5 ± 4.41 nM | IC50 (RV Wa (G1P[8]) strain; Wa strain in HT-29 cells, representative experiment, 24 h, PFA, read-out: IC50 (Fig 1B plot)): 16.1 nM | IC50 (RV Wa (G1P[8]) strain; Wa strain in MA104 cells, MOI = 1, 24 h p.i., PFA, read-out: IC50): 10.5 ± 3.57 nM | IC50 (RV Wa (G1P[8]) strain; Wa strain in MA104 cells, representative experiment, 24 h, PFA, read-out: IC50 (Fig 1B plot)): 10.1 nM | IC50 (RV SA11 (G3P[2]) strain; SA11 strain in Caco-2 cells, MOI = 1, 24 h p.i., PFA, read-out: IC50): 83.8 ± 20.6 nM | IC50 (RV SA11 (G3P[2]) strain; SA11 strain in Caco-2 cells, representative experiment, 24 h, PFA, read-out: IC50 (Fig 1B plot)): 83.7 nM | IC50 (RV SA11 (G3P[2]) strain; SA11 strain in HT-29 cells, MOI = 1, 24 h p.i., PFA, read-out: IC50): 48.2 ± 34.8 nM | IC50 (RV SA11 (G3P[2]) strain; SA11 strain in HT-29 cells, representative experiment, 24 h, PFA, read-out: IC50 (Fig 1B plot)): 41.6 nM | IC50 (RV SA11 (G3P[2]) strain; SA11 strain in MA104 cells, MOI = 1, 24 h p.i., PFA, read-out: IC50): 3.01 ± 0.77 nM | IC50 (RV SA11 (G3P[2]) strain; SA11 strain in MA104 cells, representative experiment, 24 h, PFA, read-out: IC50 (Fig 1B plot)): 2.94 nM | CC50 at 24 h ([1]; CC50): < 40000 nM | CC50 (MA104 cells; rhesus monkey): 26600 ± 5550 nM | CC50 at 24 h ([2]; CC50): < 40000 nM | CC50 (Caco-2 cells; human): 20000 ± 3070 nM | CC50 (HT-29 cells; human): 29200 ± 5060 nM

C=CCNC1=C2C[C@@H](C)C[C@H](OC)[C@H](O)[C@@H](C)/C=C(\C)[C@H](OC(N)=O)[C@@H](OC)/C=C\C=C(/C)C(=O)NC(=CC1=O)C2=O [17-AAG, 17-allylamino-17-demethoxygeldanamycin]
IC50 (RV Wa (G1P[8]) strain; Caco-2, 24 h): 162 ± 34.2 nM | IC50 (RV Wa (G1P[8]) strain; [3]): 172 nM | IC50 (RV Wa (G1P[8]) strain; HT-29, 24 h): 26.4 ± 20.5 nM | IC50 (RV Wa (G1P[8]) strain; [4]): 21.9 nM | IC50 (RV Wa (G1P[8]) strain; MA104, 24 h): 6.81 ± 2.18 nM | IC50 (RV Wa (G1P[8]) strain; [5]): 6.58 nM | IC50 (RV SA11 (G3P[2]) strain; Caco-2, 24 h): 116 ± 33.3 nM | IC50 (RV SA11 (G3P[2]) strain; [3]): 113 nM | IC50 (RV SA11 (G3P[2]) strain; HT-29, 24 h): 54 ± 7.14 nM | IC50 (RV SA11 (G3P[2]) strain; [4]): 53.9 nM | IC50 (RV SA11 (G3P[2]) strain; MA104, 24 h): 3.52 ± 0.6 nM | IC50 (RV SA11 (G3P[2]) strain; [5]): 3.51 nM | CC50 at 24 h ([1]; MA104 cells, 24 h, CCK-8, read-out: CC50): < 40000 nM | CC50 (MA104 cells; MA104 cells, CCK-8, read-out: CC50): 23300 ± 6720 nM | CC50 at 24 h ([2]; Caco-2 cells, CCK-8): < 40000 nM | CC50 at 24 h ([2]; HT-29 cells, 24 h, CCK-8, read-out: CC50): < 40000 nM | CC50 (Caco-2 cells; Caco-2 cells, CCK-8, read-out: CC50): 28600 ± 9730 nM | CC50 (HT-29 cells; HT-29 cells, CCK-8, read-out: CC50): 20700 ± 6030 nM
